Measurements taken from patent EP0923292B1, “IMPROVED METHOD FOR SYSTEMIC ADMINISTRATION OF 2,4-DIENOIC ACID-TYPE INSECTICIDES TO TERRESTRIAL MAMMALS” (priority 1996, dated 1998).

Columns and labels:
[1] = (S)-Methoprene concentration in fat of rat upon in vivo administration (radioassay/TLC); set-up: species or system Sprague-Dawley male rats
Description: Sprague-Dawley CD® VAF/PLUS® male rats were purchased from Charles River Breeding Laboratories, Inc., Portage, Michigan, USA. The body weights of the rats averaged 200 g at the time of dose administration. The rats were quarantined for five days before use, except for jugular vein-cannulated rats, to which doses were administered 1 to 3 days after receipt. The rats were divided into three groups for dosage with ^14C-(S)-methoprene: • Group A received a single dose of 10 mg/kg of the ovicide through intravenous injection via the jugular vein. Three rats each were sacrificed at 0.5 hour, 1 hour, 2 hours, 3 hours, 4 hours, 5 hours, 6 hours, and 7 hours after dosing. • Group B received a single dose 10 mg/kg of the ovicide through oral administration by gavage dosing. Three rats each were sacrificed at 1 hour, 2 hours, 3 hours, 4 hours, 5 hours, 6 hours, 7 hours, and 8 hours after dosing. • Group C received a single dose 100 mg/kg of the ovicide through oral administration by gavage dosing. Three rats each were sacrificed at 1 hour, 2 hours, 3 hours, 4 hours, 5 hours, 6 hours, 7 hours, and 8 hours after dosing. After dosing the rats were house individually in cages. Daily room temperature was maintained between 69°C and […] and the relative humidity was between 40% and 70%. All rats had free access to food and fresh tap water.
For analyses of the ovicide in fat, visceral fat was collected from the sacrificed rats. The fat sample from each rat was thoroughly mixed 1:1 with cellulose powder, and homogenized with a few drops of water. A portion (0.5 to 1 g) of each fat sample was extracted with 10 mL of a mixture of hexane/diethyl ether (1:1), which was treated vigorously on a sonicator for four minutes, then vortex mixed for two minutes and centrifuged. This procedure was repeated twice. The extracts were then combined, radioassayed, rotary evaporated, and concentrated under nitrogen for TLC analysis. A small amount of methanol was added to precipitate the fat to improve the TLC separation. Radioassays and TLC analyses were performed in the same manner as for the blood samples.

[2] = Concentration of (S)-methoprene in dog blood following oral administration (HPLC); assay type: in vivo, dogs; conditions: random-bred, whole blood, 50 mg/kg
From the text: Twelve random-bred adult dogs of various sex and medium hair coat were selected based on hair coat, health, and individual habits. The twelve dogs were grouped into two groups of six dogs each. Dog weights ranged from 22.5 kg to 35.0 kg, and the various weights and each sex were represented in each group. The dogs received a measured amount of Science Diet maintenance dog food daily and water was available. The two groups of dogs were housed separately. The dogs of Group 1 were not given any treatments, whereas those of Group 2 were each given 50 mg/kg of technical (S)-methoprene one time only at the start of the study (Day 0).
Blood samples were taken periodically by drawing the samples into 10 cc disposable syringes and transferring them to labeled 5 mL heparinized EDTA vacutainers treated with […] of paraoxon solution at a concentration of 1 x 10^-2 M. The blood samples were frozen until ready for analysis. Hair samples were clipped from the dogs on the same days that blood samples were taken, then placed in labeled freezer jars with aluminum foil seals, and frozen.
To analyze the blood samples, the samples were extracted three times with methyl t-butyl ether, evaporated, reconstituted in 1 mL of methanol, and analyzed by HPLC as in the hair analyses.

Question: With `COC(C)(C)CCC[C@H](C)C/C=C/C(C)=C/C(=O)OC(C)C` [(S)-Methoprene, 1-isopropyl (E,E)-11-methoxy-3,7,11-trimethyl dodecadi-2,4-enoate] as the compound, how does the “(S)-Methoprene Concentration in Fat” value ([1]; Group A 10 mg/kg I.V., 0.5 hours, average of three animals) read?
Answer: The value was 4.193 ± 1.566 ppm.

Question: What about the “(S)-Methoprene Concentration in Fat” value ([1]; Group A 10 mg/kg I.V., 1 hour, average of three animals) of the same compound?
Answer: The value was 6.936 ± 3.259 ppm.

Question: What about the “(S)-Methoprene Concentration in Fat” value ([1]; Group A 10 mg/kg I.V., 2 hours, average of three animals) of the same compound?
Answer: The value was 5.929 ± 1.197 ppm.

Question: And the “(S)-Methoprene Concentration in Fat” value ([1]; Group A 10 mg/kg I.V., 3 hours, average of three animals)?
Answer: The value was 5.233 ± 0.457 ppm.

Question: What about the “(S)-Methoprene Concentration in Fat” value ([1]; Group A 10 mg/kg I.V., 4 hours, average of three animals) of the same compound?
Answer: The value was 8.179 ± 3.532 ppm.

Question: What about the “(S)-Methoprene Concentration in Fat” value ([1]; Group A 10 mg/kg I.V., 5 hours, average of three animals) of the same compound?
Answer: The value was 7.596 ± 3.990 ppm.

Question: And the “(S)-Methoprene Concentration in Fat” value ([1]; Group A 10 mg/kg I.V., 6 hours, average of three animals)?
Answer: Its value is 6.734 ± 2.209 ppm.

Question: What about the “(S)-Methoprene Concentration in Fat” value ([1]; Group A 10 mg/kg I.V., 7 hours, average of three animals) of the same compound?
Answer: The value was 8.077 ± 1.082 ppm.

Question: And the “(S)-Methoprene Concentration in Fat” value ([1]; Group B 10 mg/kg oral, 1 hour, average of three animals)?
Answer: Its value is 0.272 ± 0.103 ppm.

Question: And the “(S)-Methoprene Concentration in Fat” value ([1]; Group B 10 mg/kg oral, 2 hours, average of three animals)?
Answer: Its value is 1.138 ± 0.388 ppm.

Question: And the “(S)-Methoprene Concentration in Fat” value ([1]; Group B 10 mg/kg oral, 3 hours, average of three animals)?
Answer: The value was 1.715 ± 0.680 ppm.

Question: And the “(S)-Methoprene Concentration in Fat” value ([1]; Group B 10 mg/kg oral, 4 hours, average of three animals)?
Answer: The value was 2.327 ± 1.090 ppm.

Question: And the “(S)-Methoprene Concentration in Fat” value ([1]; Group B 10 mg/kg oral, 5 hours, average of three animals)?
Answer: The value was 2.980 ± 0.657 ppm.

Question: And the “(S)-Methoprene Concentration in Fat” value ([1]; Group B 10 mg/kg oral, 6 hours, average of three animals)?
Answer: Its value is 3.369 ± 0.814 ppm.

Question: And the “(S)-Methoprene Concentration in Fat” value ([1]; Group B 10 mg/kg oral, 7 hours, average of three animals)?
Answer: Its value is 2.921 ± 1.345 ppm.

Question: And the “(S)-Methoprene Concentration in Fat” value ([1]; Group B 10 mg/kg oral, 8 hours, average of three animals)?
Answer: The value was 2.408 ± 0.702 ppm.

Question: And the “(S)-Methoprene Concentration in Fat” value ([1]; Group C 100 mg/kg oral, 1 hour, average of two animals)?
Answer: The value was 1.060 ± 0.270 ppm.

Question: And the “(S)-Methoprene Concentration in Fat” value ([1]; Group C 100 mg/kg oral, 2 hours, average of three animals)?
Answer: Its value is 14.726 ± 3.371 ppm.

Question: What about the “(S)-Methoprene Concentration in Fat” value ([1]; Group C 100 mg/kg oral, 3 hours, average of three animals) of the same compound?
Answer: The value was 22.868 ± 3.322 ppm.

Question: What about the “(S)-Methoprene Concentration in Fat” value ([1]; Group C 100 mg/kg oral, 4 hours, average of three animals) of the same compound?
Answer: Its value is 45.316 ± 16.910 ppm.

Question: And the “(S)-Methoprene Concentration in Fat” value ([1]; Group C 100 mg/kg oral, 5 hours, average of three animals)?
Answer: The value was 38.420 ± 2.765 ppm.

Question: And the “(S)-Methoprene Concentration in Fat” value ([1]; Group C 100 mg/kg oral, 6 hours, average of three animals)?
Answer: Its value is 41.898 ± 11.568 ppm.

Question: What about the “(S)-Methoprene Concentration in Fat” value ([1]; Group C 100 mg/kg oral, 7 hours, average of three animals) of the same compound?
Answer: Its value is 39.393 ± 17.952 ppm.

Question: And the “(S)-Methoprene Concentration in Fat” value ([1]; Group C 100 mg/kg oral, 8 hours, average of three animals)?
Answer: Its value is 47.162 ± 20.116 ppm.

Question: And the concentration at 1 day ([2]; Dog #60, oral 50 mg/kg one time on Day 0, day 1)?
Answer: Its concentration at 1 day is 117 ng/g.

Question: What about the concentration at 3 day ([2]; Dog #60, oral 50 mg/kg one time on Day 0, day 3) of the same compound?
Answer: Its concentration at 3 day is 36 ng/g.

Question: And the concentration at 1 day ([2]; Dog #98, oral 50 mg/kg one time on Day 0, day 1)?
Answer: The concentration at 1 day was 97.2 ng/g.

Question: And the concentration at 1 day ([2]; Dog #528, oral 50 mg/kg one time on Day 0, day 1)?
Answer: Its concentration at 1 day is 165 ng/g.

Question: And the concentration at 3 day ([2]; Dog #528, oral 50 mg/kg one time on Day 0, day 3)?
Answer: Its concentration at 3 day is 63.6 ng/g.

Question: And the concentration at 1 day ([2]; Dog #529, oral 50 mg/kg one time on Day 0, day 1)?
Answer: Its concentration at 1 day is 172 ng/g.

Question: What about the concentration at 3 day ([2]; Dog #529, oral 50 mg/kg one time on Day 0, day 3) of the same compound?
Answer: The concentration at 3 day was 52.1 ng/g.

Question: And the concentration at 7 day ([2]; Dog #529, oral 50 mg/kg one time on Day 0, day 7)?
Answer: Its concentration at 7 day is 55.7 ng/g.

Question: What about the concentration at 1 day ([2]; Dog #534, oral 50 mg/kg one time on Day 0, day 1) of the same compound?
Answer: Its concentration at 1 day is 146 ng/g.

Question: And the concentration at 3 day ([2]; Dog #534, oral 50 mg/kg one time on Day 0, day 3)?
Answer: The concentration at 3 day was 94.2 ng/g.

Question: What about the concentration at 5 day ([2]; Dog #534, oral 50 mg/kg one time on Day 0, day 5) of the same compound?
Answer: The concentration at 5 day was 66.8 ng/g.

Question: What about the concentration at 1 day ([2]; Dog #535, oral 50 mg/kg one time on Day 0, day 1) of the same compound?
Answer: Its concentration at 1 day is 239 ng/g.

Question: And the concentration at 3 day ([2]; Dog #535, oral 50 mg/kg one time on Day 0, day 3)?
Answer: Its concentration at 3 day is 93.3 ng/g.

Question: What about the concentration at 5 day ([2]; Dog #535, oral 50 mg/kg one time on Day 0, day 5) of the same compound?
Answer: Its concentration at 5 day is 47.7 ng/g.
